For experiment [1], the target named is T1, Dual specificity protein kinase CLK4 (Homo sapiens, UniProt Q9HAZ1). As to the kind of experiment: Inhibition of Clk4.
For experiment [2], the target named is T1, Dual specificity protein kinase CLK4. As to the kind of experiment: Binding affinity to Clk4 assessed as dissociation constant.
The target in experiment [3] is Dual specificity protein kinase CLK1 (Homo sapiens, UniProt P49759). As to the kind of experiment: Binding affinity to Clk1 assessed as dissociation constant.
In experiment [4] the target is Dual specificity tyrosine-phosphorylation-regulated kinase 1A (Homo sapiens, UniProt Q13627). As to the kind of experiment: Binding affinity to Dyrk1A assessed as dissociation constant.
Experiment [5] deals with Dual specificity tyrosine-phosphorylation-regulated kinase 1B (Homo sapiens, UniProt Q9Y463). As to the kind of experiment: Binding affinity to Dyrk1B assessed as dissociation constant.
The target of experiment [6] is Epidermal growth factor receptor (Homo sapiens, UniProt P00533). As to the kind of experiment: Binding affinity to EGFR assessed as dissociation constant.
Experiment [7] concerns the target Dual specificity protein kinase CLK2 (Homo sapiens, UniProt P49760). As to the kind of experiment: Binding affinity to Clk2 assessed as dissociation constant.
In experiment [8] the target is Dual specificity protein kinase CLK3 (Homo sapiens, UniProt P49761). As to the kind of experiment: Binding affinity to Clk3 assessed as dissociation constant.

The IC50 is the point on the concentration scale where inhibition reaches its midpoint. Read a low IC50 as greater potency in that assay. A word on the Kd: it is the free concentration of one partner at which half of the binding sites on the other are occupied at equilibrium, for simple one-to-one binding.

T1 sequence (Q9HAZ1 whole entry): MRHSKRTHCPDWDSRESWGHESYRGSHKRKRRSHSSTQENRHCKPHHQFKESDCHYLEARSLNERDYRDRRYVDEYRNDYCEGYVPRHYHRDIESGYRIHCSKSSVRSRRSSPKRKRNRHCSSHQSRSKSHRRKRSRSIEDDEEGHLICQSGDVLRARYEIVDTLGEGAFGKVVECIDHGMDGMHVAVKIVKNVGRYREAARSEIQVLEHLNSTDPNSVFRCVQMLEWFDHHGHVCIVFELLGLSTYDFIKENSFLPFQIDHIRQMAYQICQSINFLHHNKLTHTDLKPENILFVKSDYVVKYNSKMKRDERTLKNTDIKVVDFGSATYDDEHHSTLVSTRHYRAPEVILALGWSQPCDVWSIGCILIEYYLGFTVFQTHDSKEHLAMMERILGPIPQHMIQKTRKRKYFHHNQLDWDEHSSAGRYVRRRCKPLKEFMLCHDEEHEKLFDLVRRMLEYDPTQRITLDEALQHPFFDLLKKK
Dual specificity tyrosine-phosphorylation-regulated kinase 1B, sequence (Q9Y463 whole entry): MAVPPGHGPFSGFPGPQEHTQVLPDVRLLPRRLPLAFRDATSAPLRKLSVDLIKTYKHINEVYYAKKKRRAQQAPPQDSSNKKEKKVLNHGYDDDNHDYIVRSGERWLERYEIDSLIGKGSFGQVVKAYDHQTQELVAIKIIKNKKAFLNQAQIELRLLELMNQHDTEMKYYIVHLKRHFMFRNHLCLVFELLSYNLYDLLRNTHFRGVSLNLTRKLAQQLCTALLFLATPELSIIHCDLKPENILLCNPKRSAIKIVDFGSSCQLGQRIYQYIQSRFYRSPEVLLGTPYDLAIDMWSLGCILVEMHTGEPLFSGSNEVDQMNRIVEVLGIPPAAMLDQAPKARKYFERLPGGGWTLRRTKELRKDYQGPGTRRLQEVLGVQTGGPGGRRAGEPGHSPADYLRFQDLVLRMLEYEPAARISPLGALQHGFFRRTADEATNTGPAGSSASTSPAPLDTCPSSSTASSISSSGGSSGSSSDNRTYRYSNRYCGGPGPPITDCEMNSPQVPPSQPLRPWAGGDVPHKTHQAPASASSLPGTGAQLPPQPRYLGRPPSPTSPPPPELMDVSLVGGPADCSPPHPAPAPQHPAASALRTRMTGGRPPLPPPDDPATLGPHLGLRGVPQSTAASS
Epidermal growth factor receptor, sequence (P00533 whole entry): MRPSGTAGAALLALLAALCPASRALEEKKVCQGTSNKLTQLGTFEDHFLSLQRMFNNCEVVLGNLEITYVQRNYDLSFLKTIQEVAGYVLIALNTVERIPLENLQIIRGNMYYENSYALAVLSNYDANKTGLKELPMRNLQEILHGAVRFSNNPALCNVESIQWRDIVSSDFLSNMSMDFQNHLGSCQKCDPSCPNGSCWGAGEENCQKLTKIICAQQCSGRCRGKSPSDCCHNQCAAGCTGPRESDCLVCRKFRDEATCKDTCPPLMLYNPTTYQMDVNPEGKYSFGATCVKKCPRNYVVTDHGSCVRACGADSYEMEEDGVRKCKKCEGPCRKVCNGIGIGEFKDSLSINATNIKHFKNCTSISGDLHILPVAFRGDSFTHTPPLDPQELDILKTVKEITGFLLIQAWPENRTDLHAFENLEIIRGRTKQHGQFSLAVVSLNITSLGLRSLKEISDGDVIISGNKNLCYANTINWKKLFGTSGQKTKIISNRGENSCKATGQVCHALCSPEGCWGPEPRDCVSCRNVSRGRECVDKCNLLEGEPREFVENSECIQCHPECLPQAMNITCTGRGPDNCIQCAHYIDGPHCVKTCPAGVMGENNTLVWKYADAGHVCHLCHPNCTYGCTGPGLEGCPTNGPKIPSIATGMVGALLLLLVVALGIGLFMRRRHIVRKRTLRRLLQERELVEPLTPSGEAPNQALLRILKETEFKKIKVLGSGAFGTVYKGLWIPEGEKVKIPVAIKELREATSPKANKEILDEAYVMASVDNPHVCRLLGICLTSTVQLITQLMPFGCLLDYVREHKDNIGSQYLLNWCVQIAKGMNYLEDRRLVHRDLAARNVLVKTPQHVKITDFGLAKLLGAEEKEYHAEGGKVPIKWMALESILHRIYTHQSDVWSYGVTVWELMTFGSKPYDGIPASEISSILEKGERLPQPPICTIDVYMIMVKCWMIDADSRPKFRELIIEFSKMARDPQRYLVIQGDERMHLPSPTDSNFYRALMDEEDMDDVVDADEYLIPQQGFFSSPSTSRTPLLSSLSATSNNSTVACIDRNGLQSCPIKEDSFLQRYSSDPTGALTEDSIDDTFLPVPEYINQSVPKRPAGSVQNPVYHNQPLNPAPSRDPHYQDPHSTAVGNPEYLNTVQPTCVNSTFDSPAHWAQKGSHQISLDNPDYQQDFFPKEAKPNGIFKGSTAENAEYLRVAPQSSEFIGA
Dual specificity protein kinase CLK2, sequence (P49760 whole entry): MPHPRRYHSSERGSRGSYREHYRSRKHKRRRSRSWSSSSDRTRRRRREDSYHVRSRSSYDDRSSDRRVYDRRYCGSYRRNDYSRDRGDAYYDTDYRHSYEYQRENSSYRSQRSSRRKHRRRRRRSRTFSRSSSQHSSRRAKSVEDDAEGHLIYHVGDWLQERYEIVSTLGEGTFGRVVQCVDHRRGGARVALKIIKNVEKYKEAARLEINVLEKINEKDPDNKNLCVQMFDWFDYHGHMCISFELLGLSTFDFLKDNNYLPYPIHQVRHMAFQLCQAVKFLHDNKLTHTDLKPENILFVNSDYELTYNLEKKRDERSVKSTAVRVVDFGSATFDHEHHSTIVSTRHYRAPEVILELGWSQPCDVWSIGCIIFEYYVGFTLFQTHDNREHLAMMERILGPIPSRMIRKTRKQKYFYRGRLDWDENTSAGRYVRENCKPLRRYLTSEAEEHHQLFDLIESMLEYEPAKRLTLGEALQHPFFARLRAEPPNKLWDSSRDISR
Dual specificity protein kinase CLK1, sequence (P49759 whole entry): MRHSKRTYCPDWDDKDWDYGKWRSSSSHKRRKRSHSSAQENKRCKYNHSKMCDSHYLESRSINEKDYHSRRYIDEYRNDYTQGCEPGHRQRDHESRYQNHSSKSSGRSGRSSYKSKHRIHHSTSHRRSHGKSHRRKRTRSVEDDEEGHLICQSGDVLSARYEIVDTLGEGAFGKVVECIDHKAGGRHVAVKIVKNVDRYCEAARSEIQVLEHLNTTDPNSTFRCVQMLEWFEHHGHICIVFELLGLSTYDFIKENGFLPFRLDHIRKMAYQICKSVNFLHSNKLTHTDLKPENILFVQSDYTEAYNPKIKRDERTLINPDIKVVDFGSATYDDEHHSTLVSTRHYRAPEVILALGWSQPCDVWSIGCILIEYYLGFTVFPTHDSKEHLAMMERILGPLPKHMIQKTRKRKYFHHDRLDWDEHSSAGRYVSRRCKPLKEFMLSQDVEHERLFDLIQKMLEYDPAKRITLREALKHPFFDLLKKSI
Dual specificity protein kinase CLK3, sequence (P49761 whole entry): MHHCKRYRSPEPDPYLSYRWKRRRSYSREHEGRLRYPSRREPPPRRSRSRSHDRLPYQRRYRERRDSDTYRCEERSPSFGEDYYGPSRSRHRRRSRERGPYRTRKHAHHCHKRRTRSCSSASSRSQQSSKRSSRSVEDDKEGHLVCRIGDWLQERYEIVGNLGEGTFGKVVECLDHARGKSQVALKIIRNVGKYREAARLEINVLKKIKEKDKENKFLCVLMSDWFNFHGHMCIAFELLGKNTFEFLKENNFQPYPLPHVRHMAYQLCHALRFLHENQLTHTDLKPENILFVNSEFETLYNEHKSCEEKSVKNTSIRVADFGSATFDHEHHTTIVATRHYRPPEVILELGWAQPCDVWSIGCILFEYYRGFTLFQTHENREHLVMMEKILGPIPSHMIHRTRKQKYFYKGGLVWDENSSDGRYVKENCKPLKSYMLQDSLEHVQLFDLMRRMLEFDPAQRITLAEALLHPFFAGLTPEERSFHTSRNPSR

For the compound `Cc1cccc(CNc2ncnc3ccc(-c4ccc5c(c4)OCO5)cc23)c1`, the IC50 in experiment [1] stood at 126 nM. Consider `c1csc(CNc2ncnc3ccc(-c4ccc5c(c4)OCO5)cc23)c1`, for which the IC50 in experiment [1] was 63 nM. Further, the Kd in experiment [2] turned out to be 50 nM; in experiment [3] it was 37 nM; in experiment [4], 27 nM; in experiment [5], 430 nM; in experiment [6], 230 nM; in experiment [7], 680 nM. For the same compound, the Kd in experiment [8] was 470 nM. Consider `Cc1csc(CNc2ncnc3ccc(-c4c(C)noc4C)cc23)c1`, for which the IC50 in experiment [1] worked out at 501 nM. Same read-out and setting: with `COc1cccc(-c2ccc3ncnc(NCc4cc(C)cs4)c3c2)c1` the figure was 1000 nM.

As for `Cc1csc(CNc2ncnc3ccc(-c4ccc5c(c4)OCO5)cc23)c1`, the half-inhibitory concentration (IC50) in experiment [1] came to 178 nM. For the compound `Cc1cccc(CNc2ncnc3ccc(-c4ccco4)cc23)c1`, it took 224 nM to reach half-maximal inhibition in experiment [1] (IC50).

Compound `c1cncc(CNc2ncnc3ccc(-c4ccco4)cc23)c1` yielded an IC50 in experiment [1] of 794 nM. The same measure, in the same setting: with `COc1cccc(-c2ccc3ncnc(NCc4cccnc4)c3c2)c1` the figure was 3550 nM; with `Fc1cccc(CNc2ncnc3ccc(-c4ccco4)cc23)c1`, 141 nM; with `c1cncc(CNc2ncnc3ccc(-c4ccc5c(c4)OCO5)cc23)c1`, 100 nM.

Regarding `COc1cccc(-c2ccc3ncnc(NCc4cccc(F)c4)c3c2)c1`, the IC50 in experiment [1] came out at 708 nM. Against the preceding compound, the IC50 is about 7.1-fold higher.

As to `Cc1noc(C)c1-c1ccc2ncnc(NCc3cccs3)c2c1`, the IC50 in experiment [1] came out at 158 nM.

`COc1cccc(-c2ccc3ncnc(NCc4cccc(C)c4)c3c2)c1`: the IC50 in experiment [1] came to 1120 nM.

Take `Fc1cccc(CNc2ncnc3ccc(-c4ccc5c(c4)OCO5)cc23)c1`: the half-inhibitory concentration (IC50) in experiment [1] was found to be 126 nM.

Turning to `Cc1noc(C)c1-c1ccc2ncnc(NCc3cccc(F)c3)c2c1`, the IC50 in experiment [1] is 178 nM.

Compound `c1coc(-c2ccc3ncnc(NCc4cccs4)c3c2)c1` registered an IC50 in experiment [1] of 250 nM. Still for that read-out and setting: with `Cc1cccc(CNc2ncnc3ccc(-c4ccc5c(c4)OCCO5)cc23)c1` the figure was 631 nM; with `c1coc(-c2ccc3ncnc(NCc4ccoc4)c3c2)c1`, 111 nM; with `COc1cccc(-c2ccc3ncnc(NCc4ccoc4)c3c2)c1`, 1000 nM. Same read-out and setting: with `Cc1csc(CNc2ncnc3ccc(-c4ccc5c(c4)OCCO5)cc23)c1` the figure was 501 nM. In experiment [1], `c1cncc(CNc2ncnc3ccc(-c4ccc5c(c4)OCCO5)cc23)c1` yielded an IC50 of 447 nM.

For `c1nc(NCc2ccoc2)c2cc(-c3ccc4c(c3)OCO4)ccc2n1`, 63 nM corresponded to half-maximal inhibition in experiment [1] (IC50). This IC50 is about 7.1-fold lower than that of the compound before.

The compound `COc1cccc(-c2ccc3ncnc(NCc4cccs4)c3c2)c1` registered an IC50 in experiment [1] of 891 nM.

These data come from ChEMBL document CHEMBL1156118, “Evaluation of substituted 6-arylquinazolin-4-amines as potent and selective inhibitors of cdc2-like kinases (Clk)” (Bioorg Med Chem Lett, 2009).
